Measurements: EP3568131B1, “COMPOSITION COMPRISING 7-HYDROXYMATAIRESINOL FOR USE IN THE TREATMENT AND IN THE PREVENTION OF TRICHOLOGICAL DISEASES OF INFLAMMATORY AND/OR HORMONAL ORIGIN” (Sinerga Group S.r.l., priority 2017, dated 2018)
Read-outs that look alike come from different tables or passages of the source.

Columns and labels:
[1] = system: human fibroblasts of the dermal papilla (HHDPC); assay: Total protein dosage (Bradford method); format: cell-based; conditions: for activation at 1000 µg/mL: 1 mg/ml of 5% glycerine solution
Description: (§1) The purpose of the test is quantitatively establishing the effects of 7-hydroxymatairesinol (HMR) on cell proliferation and on the synthesis of total proteins in human fibroblasts of the dermal papilla through the cell viability test (MTT test) after cycle synchronization, and establishing the protein dosage at different exposure times and at different sub-toxic sample dilutions.
(§2) Dermal papilla cells derived from human hair follicle (HHDPC: human hair dermal papilla cells) with fibroblastic morphology. The cells are cultured in DMEM containing 10% FBS and antibiotics.
(§3) The cells were seeded in 24-well plates and left to grow for 24h at 37°C and 5% CO2. Then they were deprived of the serum 6 hours before the experiment for cell cycle synchronization.
(§4) After 6 hours, fresh culture medium was added without serum but containing the sample to be tested in order to reach different final dilutions. The 5% glycerine-solubilized sample was dissolved in the culture medium. The test was carried out in triplicate.
(§5) After 24 and 48 hours of exposure, the MTT cell viability test and the total protein test using the Bradford method^1 were carried out on separate plates. Untreated cells were used as a negative control (CN), while cells treated with human insulin were used as a positive control (CP).
The protein dosage was carried out according to the Bradford method. At the end of the treatment, the cells were washed with sterile PBS and lysed by treatment with purified water at 4°C. The colouring reagent was added to the lysate. A standard curve of albumin titrated to 20, 40, 80 and 100 µg/ml was prepared in a similar manner.
Then 200 µl of each sample, controls and standards, each in triplicate, were transferred to a 96-well plate. The reading was carried out with a colorimeter (Tecan, Sunrise) equipped with a plate reader, at 595 nm.
To quantify proteins, a standard albumin calibration curve was drawn and sample concentrations were calculated using the interpolation curve formula and relative absorbances. The averages of the individual data were then calculated, and for each sample the percentage of increase in protein synthesis was calculated, with respect to the negative control: % protein synthesis increment = (μg/mlsampleprotein/μg/mlCN)∗100 [formula]

[2] = MTT cytotoxicity test on reconstituted 3D epidermis; format: cell-based; conditions: human
Protocol: • Cytotoxicity through the MTT test at the end of incubation: cell survival test with 3D human epidermis reconstituted in vitro for the evaluation of the cytotoxic potential caused by the sample. • Inhibition of the release of cellular mediators of inflammation (IL-1α) after stress induced with SLS.
(§6) The cell model used for in vitro tests is represented by a three-dimensional system of reconstituted human epidermis in vitro.
(§7) This three-dimensional cellular model is made up of normal human primary keratinocytes, left to grow in vitro in order to simulate the multi-layered architecture of the human epidermis, with a well-differentiated stratum corneum. The model was purchased from CELLSYSTEMS (Troisdorf, batch 100-AE1818-1).
(§8) The skin irritation characterized by the release of IL-1α was caused by an epidermis pre-treatment for 60 minutes with SLS 0.25%.
(§9) Subsequently, 30µl of diluted sample were placed on two units and the exposure was extended for 24 hours at 37°C, 5% CO2. The sample was diluted to 0.25% in phosphate buffer.
(§10) As a negative control, two units of epidermis were treated with phosphate buffer (PBS), as a positive control two units were treated for 60' with 0.25% SLS. The test was carried out in duplicate.
At the end of the exposure, the sample and the references were removed by washing with phosphate buffer (PBS) and the cell viability was assessed.
The epidermis was incubated for 3h at 37°C with a lmg/ml solution of MTT (3- [4,5-dimethylthiazol-2-yl] -2,5-diphenyl tetrazolium bromide).
Then the solution was removed and replaced with isopropanol with subsequent 2 h incubation at room temperature.
Two aliquots of each sample were transferred to a 96-well plate for reading the absorbance, which was carried out at the wavelength of 570 nm, with a colorimeter (Tecan, model Sunrise remote) equipped with a plate reader.
The result was expressed as a cellular viability in percent according to the formula: % cell viability = [OD (570 nm) tested sample/OD (570 nm) CN] x 100

5α-reductase = assay: Gene expression of 5α-reductase by qRT-PCR in testosterone-treated dermal papilla cells; format: cell-based; conditions: Homo sapiens, HHDPC, 48 h
Description: Measurement of the gene expression level of 5α-reductase by means of Real Time Polymerase Chain Reaction (qRT-PCR) in human cells of the dermal papilla with and without treatment with the sample. The purpose of the test is to highlight and quantify changes in gene expression of 5α-reductase levels in cell cultures exposed to treatment with the tested substance compared to controls of the same untreated cells. This enzyme is expressed in skin melanocytes, fibroblasts and keratinocytes and turns testosterone into di-hydro-testosterone, a key metabolite implicated in various skin disorders such as acne vulgaris, hirsutism, seborrhoea and androgenetic alopecia. After birth, the 5α-reductase enzyme (type 1) is expressed in multiple body areas, including liver, skin, scalp and prostate. 5α-reductase (type 2) is expressed in prostate, seminal vesicles, epididymis, liver, and, to a lesser extent, scalp and skin. In this test, the cells are previously treated with testosterone to induce 5α-reductase production and are exposed to various test substances for 48 hours. A titrated extract of Serenoa repens, a known pharmacologically active compound used to treat benign prostatic hyperplasia, is used as a positive control. The analysis is carried out through RT-qPCR (Real Time Quantitative Polymerase Chain Reaction), a very sensitive method for the detection and quantification of messenger RNA coding for the protein in analysis and therefore for the corresponding gene activation. RT-qPCR measures the fluorescence emitted by the amplicons produced during each PCR cycle. A culture of human dermal papilla (HHDPC) cells was used. The cells were grown in MEM containing 10% FBS and antibiotics. The cells were seeded in 12-well plates for 24 hours. Then they were treated for 24 hours with 10 ng/ml of testosterone. After this step, fresh culture medium containing the sample to be tested was added. The sample was dissolved directly in the culture medium. The concentrations of the sample to be tested were selected based on preliminary cytotoxicity. […] After precipitation and centrifugation (30' at 12,000 rpm at 4°C), the RNA was resuspended in 20 µl of sterile water and its concentration was determined by spectrophotometry. […] Changes in the gene expression profile are analysed by RT-qPCR using Syber Green as a fluorescent molecule. […] The detection of the fluorescence emitted in each cycle allows monitoring the PCR reaction during the exponential phase, namely where the first significant increases in the PCR product are related to the initial amount of template. […] Subsequently, data can be expressed as "fold change", namely as a ratio with respect to control (a) or as a percentage with respect to control (b). […]

[3] = system: human hair dermal papilla cells (HHDPC); assay: MTT cell viability test after cell cycle synchronization (cell proliferation); format: cell-based; conditions: for viability at 200 µg/mL / viability at 1000 µg/mL: Homo sapiens, HHDPC, vs negative control; for viability at 200 µg/mL: 0.2 mg/ml of 5% glycerine solution; for viability at 1000 µg/mL: 1 mg/ml of 5% glycerine solution
Description: as §1, §2, §3, §4, §5
This method was originally developed by Mossman^2. After 24 and 48 hours of treatment, cell viability was evaluated by incubating the cells with MTT (3-[4,5-dimethylthiazol-2-yl]-2,5-diphenyl tetrazolium bromide) for 2 hours.
The precipitated formazan crystals were then extracted using isopropanol or DMSO and were spectrophotometrically quantified at 570 nm against 650 nm. The absorbance was read with a colorimeter (Tecan, model Sunrise remote) equipped with a plate reader subtracting the reading of the bottom.
The cell viability was expressed as a percentage according to the formula: % of cell viability = [OD(570nm−650nm)testedproduct/OD(570nm−650nm)CN] × 100 [formula] OD: Optical density

IL-1α = IL-1α release (ELISA) after SLS-induced stress on reconstituted epidermis; format: cell-based, human; conditions: for IL-1α % inhibition: vs positive control
Description: The study concerns the in vitro evaluation of the anti-inflammatory potential of 7-hydroxymatairesinol against the inflammatory reaction induced by moderate irritants such as sodium lauryl sulphate (SLS), using a model of human skin cells grown in vitro in multilayer.
The inhibition of the cytokine IL-1α release caused by SLS is investigated by specific ELISA tests in the presence of the tested substance compared to untreated skin samples.
as §6, §7, §8, §9, §10
For the analysis of IL-1α, samples of culture medium were taken at 6 and 24 hours. The maintenance medium of the units treated with PBS and the medium of two non-irritated skin units treated only with the sample were taken as negative control, whereas the culture medium of two skin units treated with the 0.25% SLS solution was used as a positive control.
In this study, IL-1α was dosed using the direct-type ELISA (Enzyme-linked immunosorbent assay) method, i.e. the colour development was directly proportional to the amount of cytokines in the culture medium.
The reading was carried out at 450 nm. The sensitivity limit of this test was less than 10 pg/ml.
The IL-1α concentration was determined using a standard curve as a reference. The inhibition of IL1-α release was determined as: % IL-1α inhibition: 100- (pg/ml IL-1α released from the irritated sample/pg/ml IL-1α positive control)* 100

[4] = increase on fibroblasts of human dermal papilla compared to untreated cells
[5] = 6 h, sample 0.25% after SLS 0.25% pre-treatment
[6] = 24 h, sample 0.25% after SLS 0.25% pre-treatment

Compound `COc1cc(C[C@H]2C(=O)OC[C@@H]2[C@H](O)c2ccc(O)c(OC)c2)ccc1O` [HMR, 7-hydroxymatairesinol] has an activation at 200 µg/mL ([1]; Homo sapiens, Fibroblast, HHDPC, 24 h, 0.2 mg/ml of 5% glycerine solution, increase vs negative control, read-out: % protein synthesis) of 10.4%, an activation at 1000 µg/mL ([1]; Homo sapiens, Fibroblast, HHDPC, 24 h, increase vs negative control, read-out: % protein synthesis) of 24.5% and an activation at 1000 µg/mL ([1]; Homo sapiens, Fibroblast, HHDPC, 48 h, increase vs negative control, read-out: % protein synthesis) of 16.8%. It also gave a protein synthesis [1, 4] of 24%, a viability at 24 h ([2]; sample 0.25% in phosphate buffer alone, 24 hours exposure, read-out: % average cell viability (ds)) of 78.2% and a viability at 24 h ([2]; sample 0.25%, 24 hours, after 60 minutes pre-treatment with SLS 0.25%, read-out: % average cell viability (ds)) of 55.9%. It also gave a mrna remaining at 0.01 % (5α-reductase; 0.2 mg/ml of solution (stated as 0.01% HMR), vs untreated control, read-out: % 5a-reductase (ds) expression) of 90.9%, an inhibition at 0.01 % (5α-reductase; 0.2 mg/ml of solution (stated as 0.01% HMR), vs untreated control, read-out: % reduction) of 9.07% and an inhibition at 0.05 % (5α-reductase; 1 mg/ml of solution (stated as 0.05% HMR), 5α-reductase mRNA vs untreated control, read-out: % reduction) of 57.1%. It also gave a mrna remaining at 0.05 % (5α-reductase; 1 mg/ml of solution (stated as 0.05% HMR), vs untreated control, read-out: % 5a-reductase (ds) expression) of 42.9%, a viability at 200 µg/mL ([3]; 24 h) of 110% and a viability at 1000 µg/mL ([3]; 24 h) of 99.7%. It also gave a viability at 200 µg/mL ([3]; 48 h) of 119%, a viability at 1000 µg/mL ([3]; 48 h) of 105% and a cell proliferation [3, 4] of 19%. For the same compound, the “IL-1α Mean” value (IL-1α; [5]) was 19.72 pg/mL, the IL-1α % inhibition (IL-1α; [5]) was 13.94% and the “IL-1α Mean” value (IL-1α; 6 h, sample 0.25% alone, non-irritated epidermis) was 18.07 pg/mL. For the same compound, the “IL-1α Mean” value (IL-1α; [6]) was 97.70 pg/mL, the IL-1α % inhibition (IL-1α; [6]) was 51.32% and the “IL-1α Mean” value (IL-1α; 24 h, sample 0.25% alone, non-irritated epidermis) was 26.40 pg/mL.
In the case of `CCCCCCCCCCCCOS(=O)(=O)[O-].[Na+]` [SLS, sodium lauryl sulphate, reference compound], the viability at 1 h ([2]; SLS 0.25% for 60 minutes, positive control, read-out: % average cell viability (ds)) is reported as 50%, the viability ([2]; positive control (SLS 0.25%), test acceptability table) is reported as 50% and the “IL-1α Mean” value (IL-1α; 6 h, SLS 0.25% for 60 minutes, positive control) is reported as 22.92 pg/mL. The “IL-1α Mean” value (IL-1α; 24 h, SLS 0.25% for 60 minutes, positive control) was 200.72 pg/mL.
